Reference: patent US4550186A, “Binuclear copper (II) carboxylates formed from amine-carboxyboranes” (Duke University, priority 1983, dated 1985)
Read-outs that look alike come from different tables or passages of the source.

Assays:
[1] = target: phosphoribosyl pyrophosphate amidotransferase (Mus musculus, UniProt Q8CIH9); assay: In vivo phosphoribosyl pyrophosphate amidotransferase activity
Method: (§1) CF1 male mice (~30 g) were implanted with 2×10^6 Ehrlich ascites tumor cells, intraperitoneally on Day 0. Compound I was suspended by homogenation in 0.05% polysorbate.80-water and administered intraperitoneally at 10 and 20 mg/kg for 9 days to determine its effectiveness for inhibition of tumor growth. Mice were sacrificed on Day 10, and the ascites fluid was collected from the peritoneal cavity. The volume and ascrit (packed cell volume) were determined for each animal and the percent inhibition of tumor growth was calculated. For the metabolic studies, mice were treated on Days 8 and 9 with 10 mg/kg of Compound I, intraperitoneally. […]
(§2) Carbamyl phosphate synthetase activity was determined using the reaction medium of Kalman et al [Am. […] Citrulline formed from ornithine was measured at 490 nm by the method of Archibald [J. Biol. Chem., 156, 121 (1944)]. […] The ^14 CO2 generated in 15 min was trapped in 1M KOH and counted. Thymidylate synthetase activity was determined using a post-mitochondrial supernatant (9000 g×10 min) and 5 μCi of 5-^3 H-deoxyuridine monophosphate (14 Ci/mmol) according to the method of Kampf et al [ J. Med. Chem., 19, 903 (1976)]. ^14 C-Formate incorporation into purines was determined by the method of Spassova et al [Biochem. Pharmacol., 25, 923 (1976)] using 0.5 μCi of ^14 C-formic acid (52.0 mCi/mmol). […] The Rf value for xanthine monophosphate was scraped and counted. […]

[2] = target: T1, carbamyl phosphate synthetase (Mus musculus, UniProt B2RQC6); assay: In vivo carbamyl phosphate synthetase activity
T1 construct: CPSase II domain of CAD; ornithine transcarbamylase used as coupling enzyme
Method: as §1, §2

[3] = target: T2, orotidine monophosphate decarboxylase (Mus musculus, UniProt P13439); assay: In vivo orotidine monophosphate decarboxylase activity
T2 construct: OMP decarboxylase domain of UMP synthase
Method: as §1, §2

thymidylate synthetase = thymidylate synthetase (Mus musculus, UniProt P07607); assay: In vivo thymidylate synthetase activity
Method: as §1, §2

[4] = test system: deoxyribonucleic acid synthesis of Ehrlich ascites cells; assay: In vitro whole cell incorporation: deoxyribonucleic acid synthesis; format: cell-based, mouse; details: preliminary, 60 min, read-out: ID50, inhibition of deoxyribonucleic acid synthesis
Method: CF1 male mice (~30 g) were implanted with 2×10^6 Ehrlich ascites tumor cells, intraperitoneally on Day 0. Compound I was suspended by homogenation in 0.05% polysorbate.80-water and administered intraperitoneally at 10 and 20 mg/kg for 9 days to determine its effectiveness for inhibition of tumor growth. Mice were sacrificed on Day 10, and the ascites fluid was collected from the peritoneal cavity. The volume and ascrit (packed cell volume) were determined for each animal and the percent inhibition of tumor growth was calculated. For the metabolic studies, mice were treated on Days 8 and 9 with 10 mg/kg of Compound I, intraperitoneally. The animal was sacrificed on Day 10 and the ascites fluid harvested. The in vitro metabolic studies were performed at […] final concentration of Compound I.
In vitro incorporation of ^3 H-thymidine, ^3 H-uridine, or ^3 H-leucine was determined using 10^6 Ehrlich ascites cells, 1 μCi labeled precursor, minimum essential medium and varying final concentrations of drug from 0.25-1.0 mM. The tubes were incubated at 37° C. for 60 min and inactivated by trichloroacetic acid. The acid insoluble labeled deoxyribonucleic acid was collected on GF/F glass filter discs and ribonucleic acid and protein were precipitated on nitrocellulose filters by vacuum suction. Results are expressed as dpm of incorporated precursor per hour per 10^6 cells.

[5] = target: T1, carbamyl phosphate synthetase; assay: In vitro carbamyl phosphate synthetase activity; format: biochemical; details: 0.25 to 1.0 mM
Method: as §1, §2

[6] = 10 mg/kg/day I.P. on Days 8 and 9

T1 sequence (B2RQC6 2-2225): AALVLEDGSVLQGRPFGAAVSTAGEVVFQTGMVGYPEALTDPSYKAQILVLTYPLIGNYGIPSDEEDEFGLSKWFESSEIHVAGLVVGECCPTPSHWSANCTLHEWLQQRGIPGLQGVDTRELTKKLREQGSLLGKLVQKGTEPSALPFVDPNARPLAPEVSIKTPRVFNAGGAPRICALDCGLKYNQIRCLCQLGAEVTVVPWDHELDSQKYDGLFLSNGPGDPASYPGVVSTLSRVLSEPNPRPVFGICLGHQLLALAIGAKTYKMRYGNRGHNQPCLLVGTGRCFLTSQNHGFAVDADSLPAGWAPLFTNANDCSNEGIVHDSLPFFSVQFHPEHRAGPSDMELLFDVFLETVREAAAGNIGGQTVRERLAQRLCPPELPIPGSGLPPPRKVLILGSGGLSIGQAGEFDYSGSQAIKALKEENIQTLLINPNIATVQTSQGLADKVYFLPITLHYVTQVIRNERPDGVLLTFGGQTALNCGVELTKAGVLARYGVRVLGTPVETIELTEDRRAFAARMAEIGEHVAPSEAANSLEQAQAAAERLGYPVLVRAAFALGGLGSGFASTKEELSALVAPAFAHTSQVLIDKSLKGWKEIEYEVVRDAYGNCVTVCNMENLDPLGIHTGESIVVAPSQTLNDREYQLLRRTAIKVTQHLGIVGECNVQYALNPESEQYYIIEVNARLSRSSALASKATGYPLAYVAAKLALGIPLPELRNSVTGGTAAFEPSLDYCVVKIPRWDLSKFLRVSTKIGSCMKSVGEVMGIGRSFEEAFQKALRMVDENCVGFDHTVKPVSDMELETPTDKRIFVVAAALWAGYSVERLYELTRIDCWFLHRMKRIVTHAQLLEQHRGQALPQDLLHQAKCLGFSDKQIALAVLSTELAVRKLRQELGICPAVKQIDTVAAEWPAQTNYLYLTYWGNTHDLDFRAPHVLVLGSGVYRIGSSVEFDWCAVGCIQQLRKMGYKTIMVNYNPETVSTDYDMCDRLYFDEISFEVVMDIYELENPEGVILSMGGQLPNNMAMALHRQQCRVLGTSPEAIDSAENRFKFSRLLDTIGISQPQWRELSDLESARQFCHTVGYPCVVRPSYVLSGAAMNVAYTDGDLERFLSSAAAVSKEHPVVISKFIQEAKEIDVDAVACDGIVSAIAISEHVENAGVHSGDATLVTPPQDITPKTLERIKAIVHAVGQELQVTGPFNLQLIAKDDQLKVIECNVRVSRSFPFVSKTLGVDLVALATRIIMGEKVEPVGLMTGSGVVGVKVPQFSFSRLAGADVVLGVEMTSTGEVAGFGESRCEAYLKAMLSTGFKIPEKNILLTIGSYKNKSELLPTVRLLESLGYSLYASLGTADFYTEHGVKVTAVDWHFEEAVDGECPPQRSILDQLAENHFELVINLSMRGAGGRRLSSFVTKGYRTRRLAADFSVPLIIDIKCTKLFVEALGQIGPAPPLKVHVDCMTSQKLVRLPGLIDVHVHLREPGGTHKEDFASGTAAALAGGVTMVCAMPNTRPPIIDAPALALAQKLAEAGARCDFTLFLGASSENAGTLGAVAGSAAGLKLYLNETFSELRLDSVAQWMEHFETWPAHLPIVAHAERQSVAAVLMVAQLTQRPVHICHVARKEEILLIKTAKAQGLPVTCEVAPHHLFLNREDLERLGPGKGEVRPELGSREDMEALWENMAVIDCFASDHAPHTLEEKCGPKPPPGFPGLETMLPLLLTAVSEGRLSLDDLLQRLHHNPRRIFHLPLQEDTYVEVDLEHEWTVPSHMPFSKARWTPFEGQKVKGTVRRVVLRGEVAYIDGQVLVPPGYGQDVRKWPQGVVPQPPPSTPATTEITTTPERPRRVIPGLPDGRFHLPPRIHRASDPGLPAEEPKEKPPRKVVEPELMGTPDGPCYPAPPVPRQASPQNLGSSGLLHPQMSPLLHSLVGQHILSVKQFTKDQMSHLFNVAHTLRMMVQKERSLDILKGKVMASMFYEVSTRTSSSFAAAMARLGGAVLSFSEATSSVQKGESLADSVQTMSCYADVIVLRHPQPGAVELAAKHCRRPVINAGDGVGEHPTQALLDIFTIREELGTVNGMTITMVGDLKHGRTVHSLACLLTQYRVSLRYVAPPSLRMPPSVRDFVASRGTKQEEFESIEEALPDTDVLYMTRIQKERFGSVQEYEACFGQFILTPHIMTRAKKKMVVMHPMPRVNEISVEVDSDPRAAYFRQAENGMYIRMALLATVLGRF
Sequence of thymidylate synthetase (P07607 whole entry): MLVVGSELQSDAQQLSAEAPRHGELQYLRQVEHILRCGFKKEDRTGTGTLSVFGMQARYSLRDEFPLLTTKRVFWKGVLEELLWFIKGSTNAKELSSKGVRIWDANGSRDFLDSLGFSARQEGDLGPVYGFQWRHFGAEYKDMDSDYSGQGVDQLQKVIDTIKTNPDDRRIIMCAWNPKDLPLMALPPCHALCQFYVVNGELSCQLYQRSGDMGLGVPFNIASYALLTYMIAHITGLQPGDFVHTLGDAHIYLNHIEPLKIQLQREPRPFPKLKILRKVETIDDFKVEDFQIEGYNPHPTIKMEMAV
Sequence of phosphoribosyl pyrophosphate amidotransferase (Q8CIH9 12-517): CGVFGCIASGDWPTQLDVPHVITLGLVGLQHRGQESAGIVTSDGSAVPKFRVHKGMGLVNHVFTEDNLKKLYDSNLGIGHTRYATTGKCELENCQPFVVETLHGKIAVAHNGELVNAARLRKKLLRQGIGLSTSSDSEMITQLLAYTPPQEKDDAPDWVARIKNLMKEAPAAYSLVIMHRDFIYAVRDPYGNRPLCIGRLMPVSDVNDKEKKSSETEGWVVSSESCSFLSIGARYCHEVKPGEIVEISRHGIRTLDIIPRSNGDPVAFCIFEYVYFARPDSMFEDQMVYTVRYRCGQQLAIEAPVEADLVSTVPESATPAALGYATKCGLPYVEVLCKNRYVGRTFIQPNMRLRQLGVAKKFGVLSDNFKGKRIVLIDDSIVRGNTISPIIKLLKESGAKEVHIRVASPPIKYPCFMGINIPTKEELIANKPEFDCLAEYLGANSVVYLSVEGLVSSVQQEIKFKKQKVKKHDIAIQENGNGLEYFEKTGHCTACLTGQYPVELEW
T2 sequence (P13439 whole entry, the tested form may be a part): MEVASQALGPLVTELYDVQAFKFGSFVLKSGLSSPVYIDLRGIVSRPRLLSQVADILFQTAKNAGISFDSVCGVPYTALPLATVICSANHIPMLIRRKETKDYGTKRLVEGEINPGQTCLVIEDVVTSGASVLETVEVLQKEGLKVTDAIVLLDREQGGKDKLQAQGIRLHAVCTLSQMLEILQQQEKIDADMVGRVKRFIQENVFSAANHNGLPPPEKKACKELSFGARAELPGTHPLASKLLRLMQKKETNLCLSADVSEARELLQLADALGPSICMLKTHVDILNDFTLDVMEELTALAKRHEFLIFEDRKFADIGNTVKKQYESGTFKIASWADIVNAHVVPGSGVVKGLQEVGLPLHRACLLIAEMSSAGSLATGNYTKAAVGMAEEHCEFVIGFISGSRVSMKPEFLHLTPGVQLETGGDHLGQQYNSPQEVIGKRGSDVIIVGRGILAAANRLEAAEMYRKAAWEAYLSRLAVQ

For “{Cu[(CH3)3 N.BH2 CO2 ]2.(CH3)3 N.BH2 COOH} [Compound I]”, the “Phosphoribosyl pyrophosphate amidotransferase activity” value [1, 6] was 41 ± 3 % Control, the “Phosphoribosyl pyrophosphate amido transferase activity reduced” value ([1]; drug administration for 2 days) was 59% and the “Carbamyl phosphate synthetase activity reduced” value [2] was 23%. The “Carbamyl phosphate synthetase activity” value [2, 6] was 77 ± 8 % Control, the “Orotidine monophosphate decarboxylase activity” value [3] was “not affected” and the “Orotidine monophosphate decarboxylase activity” value [3, 6] was 106 ± 9 % Control. For the same substance, the “Thymidylate synthetase activity suppressed” value (thymidylate synthetase) was 5%, the Thymidylate synthetase activity (thymidylate synthetase; [6]) was 102 ± 9 % Control and the IC50 [4] was 940 µM. For the same substance, the “carbamyl phosphate synthetase inhibition” value [5] was “not inhibited”.
